Consider five compounds from patent US4585773A, “Isoindolinyl-alkyl-piperazines” (Bristol-Myers Company, priority 1984, dated 1986).

Each structure is given as a SMILES string. Values joined by “and” are separate entries in the source; they are usually repeats but may differ in a detail not shown here. Equal entries are not always repeated. Structures can show the parent of a compound that is named as a salt. Where two headings read alike, the source gives them in different places. A value given as a limit tells only on which side of the number the result lay.

For assay [1], the system named is α blocking activity (phenylephrine). Description: in vivo α blocking activity, phenylephrine (PE) as α-agonist (Table III). The conditions noted are these: for in vivo α blocking activity (in words): conclusion from Table III. On the set-up: species or system rat; ED50: unit not given beside the values. On the procedure: In this example the compounds of Examples I (modified), II, III, V, VI, VII, VIII, IX and XI were tested in rats for in vivo α blocking activity according to methodology described at page 312 of Deitchman, et al., Journal of Pharmacological Methods, 3, 311-321 (1980). In this test phenylephrine (PE below) or norepinephrine (NE below) was administered as an α-agonist to the rats before and after dosing with the test drug and the average interpolated dose or PE/NE effecting a 50 mm Hg increase in mean arterial blood pressure was determined. Table III below records the results. In such Table, ED50 stands for such average interpolated dose and Average Dose Shift stands for the average ratio of ED50 after drug administration to ED50 before drug administration. The compound of Example I was tested as its monochloride 2-propanolate hydrate, i.e. as C22 H27 ClN4 O4 S.HCl 0.2(CH3)2 CHOH.0.15H2 O in Tests 1-5 and as the 3/4 mole hydrochloride, i.e. C22 H27 ClN 4 O4 S.3/4HCL in Tests 2a and 3a. The route was intravenous except in the case of the runs of Test Nos. 2a, 3, 3a, 26-29 the route was oral.

For assay [2], the system named is Spontaneously Hypertensive rat. The experiment in a line: antihypertensive activity, Spontaneously Hypertensive Rat (Table II). The conditions noted are these: for antihypertensive effect (in words): conclusion from Table II (SHR, and DOCA for Examples I-IV). It counts as in vivo. As for the experimental part: Spontaneously Hypertensive Rat Male rats weighing 300-400 g, previously conditioned to the procedure, are prewarmed in a heating chamber (30° C.) for 10-20 min. and subsequently restrained in a wire holder at that temperature. Systolic blood pressure and heart rate are measured by the tailcuff technique using a pneumatic pulse transducer and a biotachometer before, and 2, 4, and 24 hours after oral administration of vehicle (0.25% Methocel in water) or test compounds suspended in vehicle at a dose volume equivalent to 5 ml/kg. Blood pressure and heart rate data are reported as changes from zero-hour measurements with vehicle control groups run periodically to confirm that the vehicle has no effect. Testing was carried out on the compounds of Examples I-XII for antihypertensive activity. In the case of all the compounds testing was carried out on the Spontaneously Hypertensive rat as described hereinbefore. In the case of the compounds of Examples I-IV testing was also carried out on the DOCA-salt Hypertensive Rat. The compound of Example I was tested as its monochloride 2-propanolate hydrate, i.e. as C22 […] ClN4 O4 S.HCl.0.2(CH3)2 CHOH.0.15H2 O in Tests 1-5; and as the 3/4 mole hydrochloride, i.e. C22 […] ClN4 O4 S: 3/4 HCl in Tests 3a, 4a, 5a-5d. Test results are set forth in Table II below wherein SHR stands for Spontaneously Hypertensive rat, DOCA stands for DOCA-salt Hypertensive Rat, ΔBP stands for the change in systolic blood pressure in mm Hg, ΔHR stands for the change in mean heart rate in beats per minute and the times set forth are the times after dosing. A peak change in ΔBP of more than 20 is considered as indicating activity.

A further assay addresses α2. Description: in vitro α2 binding, [3H]Clonidine (Table IV). On the procedure:
(§1) In this Example the compounds of Examples I-XI were tested in vitro for α1 and α2 binding. The compound of Example I was tested as its monochloride 2-propanolate hydrate, i.e. as C22 […] CLN4 O4 S .HCl.0.2(CH3)2 CHOH 0.15H2 O. In the testing specific brain tissues were prepared as sources of binding sites. Aliquots of the washed members are incubated with a low concentration of […]. After incubation at suitable temperature, the reaction mixture is treated to separate the membrane-bound radioligand Radioactivity is measured. Linear regression analysis of the probit value for the percent of binding occurring in the presence of varying concentrations of the compound of interest plotted against the concentration of the compound yields concentrations which inhibit 50% specific binding, the IC50. The assay buffer is 50 mM Hepes.KOH, pH 7.4. The ligand is [^3 H]WB-4101 from New England Nuclear for α1 and [^3 H]Clonidine from New England Nuclear for α2. The results are considered against phentolamine methanesulfonate (Reference) which is considered a good α-binder.

The next assay deals with α1. The experiment in a line: in vitro α1 binding, [3H]WB-4101 (Table IV). As for the experimental part: as §1
Assay [3] can be described thus: conscious rat diuretic screen of Lipschitz (Table I). Type of assay: in vivo, rat (female Sprague Dawley; male Okamoto-Aoki). The conditions noted are these: female Sprague Dawley rats; for response vs control in vivo at 3 mg/kg / response vs control in vivo at 30 mg/kg / response vs control in vivo at 0.3 mg/kg: Rattus norvegicus, po. On the procedure:
With respect to diuretic utility there can be mentioned the conscious rat diuretic screen of Lipschitz, et al. (J. Pharmacol. Exp. Therap. 79, 97-110 (1943)). In this test, dose response assays of diuretic, natruiretic and kaliuretic activity are determined by oral administration of the test substance. The compounds synthesized in Examples I-XI were tested for diuretic […]. The compound of Example I was tested as its monohydrochloride 2-propanolate hydrate, i.e. as C22 […] ClN4 O4 S.HCl. 0.2(CH3)2 CHOH.0.15H2 O. Testing was carried out by the diuretic screen of Lipschitz, et al. described previously. In Table I below Volume Ratio is the ratio of total volume excreted for the test comuound compared to the total volume excreted for the control, Na^+ Ratio is the Na^+ excreted for the test compound compared to the Na^+ excreted for the control, K^+ Ratio is the K^+ excreted for the test compound compared to the K^+ excreted for the control. Female Sprague Dawley rats were used in Test Nos. 1, 2, 6, 7, 11-29. Male Okamoto-Aoki rats were used in Test Nos. 3-5 and 8-10 and testing for antihypertensive activity was carried out simultaneously on the Test Nos. 3-5 rats. In some instances, compounds were retested at the same dose level.

Setting [4] is: ED50 after/before drug, PE, dose 10, intravenous.
Setting [5] is: [3H]Clonidine, brain tissue, 50 mM Hepes.KOH, pH 7.4, read-out: α2 Binding IC50.
Setting [6] is: [3H]WB-4101, brain tissue, 50 mM Hepes.KOH, pH 7.4, read-out: α1 Binding IC50.
[7] abbreviates: 3 mg/kg oral, read-out: K+ Ratio.
Where [8] appears, read: 3 mg/kg oral, read-out: Na+ Ratio.
The mark [9] stands for this setting: 3 mg/kg oral, read-out: Volume Ratio.
[10] abbreviates: 30 mg/kg oral, read-out: K+ Ratio.
[11] abbreviates: 30 mg/kg oral, read-out: Na+ Ratio.
The mark [12] stands for this setting: 30 mg/kg oral, read-out: Volume Ratio.

The IC50 is the concentration needed to halve the response being measured. Consider `NS(=O)(=O)c1cc2c(cc1Cl)CN(CCCN1CCN(c3cccc(C(F)(F)F)c3)CC1)C2=O` [Example IX, 6-chloro-2,3-dihydro-3-oxo-2-[3-[4-[3-(trifluoromethyl)phenyl]-1-piperazinyl]propyl]-1H-isoindole-5-sulfonamide hydrochloride hemihydrate], for which the figures for the “Average Dose Shift” value in assay [1] (setting [4]) and in assay [1] (iv) were 6 ± 0.6 and 2.2, respectively. Further, in assay [1], the “in vivo α blocking activity (in words)” value is “weakly active”. The same compound had an ED50 in assay [1] (iv) of 11.3. In addition, the “ΔBP 2 hours” value in assay [2] (SHR, 30 mg/kg oral) is listed as -34 ± 14 mm Hg. Also, the “ΔBP 4 hours” value in assay [2] (SHR, 30 mg/kg oral) is -32 ± 10 mm Hg. In assay [2] (SHR, 30 mg/kg oral), the “ΔHR 2 hours” value was found to be 6 ± 17 beats per minute. Also, the “ΔHR 4 hours” value in assay [2] (SHR, 30 mg/kg oral) is listed as 0 ± 14 beats per minute. Further, the “antihypertensive effect (in words)” value in assay [2] is recorded as “good antihypertensive effect without significantly affecting heart rate”. Also, the results for the 50% inhibitory concentration (IC50) on α2 (setting [5]) and on α1 (setting [6]) were above 1000 nM and 108 nM, respectively. For the same compound, the entries for the “Urinary Na/K (Test Compound)” value in assay [3] (3 mg/kg oral) and in assay [3] (30 mg/kg oral) were 2.99 and 3.67, respectively. For the same compound, the response vs control in vivo at 3 mg/kg is 106% in assay [3] (setting [7]), 127% in assay [3] (setting [8]) and 102% in assay [3] (setting [9]). Moreover, the figures for the response vs control in vivo at 30 mg/kg in assay [3] (setting [10]), in assay [3] (setting [11]) and in assay [3] (setting [12]) were 140%, 212% and 184%, respectively.
Take `NS(=O)(=O)c1cc2c(cc1Cl)CN(CCCN1CCN(Cc3ccccc3)CC1)C2=O` [Example V, 6-chloro-2,3-dihydro-3-oxo-2-[3-[4-(phenylmethyl)-1-piperazinyl]propyl]-1H-isoindole-5-sulfonamide]: in assay [1] (setting [4]), the “Average Dose Shift” value amounted to 1.7 ± 0.3. Moreover, the “ΔBP 2 hours” value in assay [2] (SHR, 30 mg/kg oral) is given as -27 ± 10 mm Hg. In addition, in assay [2] (SHR, 30 mg/kg oral), the “ΔBP 4 hours” value is recorded as -30 ± 14 mm Hg. Besides, the “ΔHR 2 hours” value in assay [2] (SHR, 30 mg/kg oral) is -6 ± 15 beats per minute. Besides, the “ΔHR 4 hours” value in assay [2] (SHR, 30 mg/kg oral) is -39 ± 14 beats per minute. Further, the “antihypertensive effect (in words)” value in assay [2] is listed as “good antihypertensive effect without significantly affecting heart rate”. For the same compound, the concentration for half-maximal inhibition (IC50) at α2 (setting [5]) stood at 1780 nM; on α1 (setting [6]), 933 nM. Further, the “Urinary Na/K (Test Compound)” value in assay [3] (0.3 mg/kg oral) worked out at 2.33; in assay [3] (30 mg/kg oral) it was 4.14. The response vs control in vivo at 0.3 mg/kg in assay [3] (0.3 mg/kg oral, read-out: K+ Ratio) stood at 99%; in assay [3] (0.3 mg/kg oral, read-out: Na+ Ratio), 97%; in assay [3] (0.3 mg/kg oral, read-out: Volume Ratio) it was 89%. Further, the response vs control in vivo at 3 mg/kg in assay [3] (setting [8]) worked out at 145%; in assay [3] (setting [9]), 128%. The response vs control in vivo at 30 mg/kg in assay [3] (setting [10]) was 133%; in assay [3] (setting [11]) it was 271%; in assay [3] (setting [12]), 220%.
With `Cl.N#Cc1cccnc1N1CCN(CCCN2Cc3cc(Cl)c(S(N)(=O)=O)cc3C2=O)CC1` [Example VI, 6-chloro-2-[3-[4-(3-cyano-2-pyridinyl)-1-piperazinyl]propyl]-2,3-dihydro-3-oxo-1H-isoindole-5-sulfonamide hydrochloride], the entries for the “Average Dose Shift” value in assay [1] (setting [4]) and in assay [1] (iv) were 27 ± 3 and 3 ± 0.2, respectively. In addition, in assay [1], the “in vivo α blocking activity (in words)” value is “active as in vivo α blockers”. Also, the ED50 in assay [1] (iv) worked out at 9.8. The “ΔBP 2 hours” value in assay [2] (SHR, 30 mg/kg oral) is given as -17 ± 10 mm Hg. Also, the “ΔBP 4 hours” value in assay [2] (SHR, 30 mg/kg oral) is reported as -7 ± 11 mm Hg. In addition, the “ΔHR 2 hours” value in assay [2] (SHR, 30 mg/kg oral) came out at 6 ± 41 beats per minute. Moreover, the “ΔHR 4 hours” value in assay [2] (SHR, 30 mg/kg oral) is -10 ± 18 beats per minute. The half-inhibitory concentration (IC50) on α2 (setting [5]) was 3330 nM; on α1 (setting [6]) it was 305 nM. The “Urinary Na/K (Test Compound)” value in assay [3] (3 mg/kg oral) was determined as 3.55; in assay [3] (30 mg/kg oral) it was 3.90. For the same compound, the response vs control in vivo at 3 mg/kg was determined as 98% in assay [3] (setting [7]), 169% in assay [3] (setting [8]) and 153% in assay [3] (setting [9]). The response vs control in vivo at 30 mg/kg worked out at 111% in assay [3] (setting [10]), 204% in assay [3] (setting [11]) and 174% in assay [3] (setting [12]).
Turning to `COc1ccc(F)cc1N1CCN(CCCN2Cc3cc(Cl)c(S(N)(=O)=O)cc3C2=O)CC1` [Example XII, 6-chloro-2,3-dihydro-2-[3-[4-(3-fluoro-6-methoxyphenyl)-1-piperazinyl]propyl]-3-oxo-1H-isoindole-5-sulfonamide], the “peak change at 2 hours in ΔBP” value in assay [2] (SHR, 30 mg/kg oral) is recorded as -64 mm Hg. Also, the “antihypertensive effect (in words)” value in assay [2] was “good antihypertensive effect without significantly affecting heart rate”.
`Cc1ccc(N(CC2=NCCN2)c2cccc(O)c2)cc1` [phentolamine methanesulfonate, reference compound]: the half-inhibitory concentration (IC50) at α2 (phentolamine methanesulfonate reference run in the α2 tests, read-out: Reference IC50) is 5.45 nM and 3.12 nM; at α1 (phentolamine methanesulfonate reference run in the α1 tests, read-out: Reference IC50), 3.68 nM and 3.47 nM and 4.76 nM.
